Values quoted from earlier work, collected in patent US12083078B2, “Parenteral cannabinoid formulations and uses thereof” (priority 2020, dated 2024).

Conditions: buffering pH range

| pH range | SMILES |
| --- | --- |
| 4-6 | CC(=O)O [Acetic Acid] |
| 3-7 | O=C(O)CC(O)(CC(=O)O)C(=O)O [Citric Acid] |
| 3-4.5 | CC(O)C(=O)O (stereo not shown) [Lactic Acid] |

| SMILES | pH range |
| --- | --- |
| O=P(O)(O)O [Sodium Phosphate] | 8-8 |
